Reference: PMC6273954, “Antileishmanial Activity and Structure-Activity Relationship of Triazolic Compounds Derived from the Neolignans Grandisin, Veraguensin, and Machilin G” (Molecules, 2016)
Values after ≈ are worked out from the molar mass of the structure shown. Like-named read-outs stand apart in the source and are kept apart here.

Columns and labels:
[1] = system: L. (L.) amazonensis intracellular amastigotes; assay: In vitro antileishmanial activity on intracellular amastigotes in peritoneal macrophages; format: cell-based, Leishmania (Leishmania) amazonensis; parameters: key to activity class against intracellular amastigotes: active (<20 µM); moderately active (20–50 µM); potentially inactive (>50 µM); settings: for IC50: Leishmania amazonensis, Peritoneal macrophage; for concentration from which infection index was significantly decreased / effect on infection index: versus untreated cells
Description: In vitro antileishmanial activity was evaluated on peritoneal macrophages infected with. L. (L.) amazonensis intracellular amastigotes. Parasites (IFLA/BR/1967/PH8 strain) were routinely isolated from BALB/c mice and maintained as promastigotes at 25 °C in Schneider's Insect Medium (Sigma-Aldrich®, St. Louis, MO, USA) supplemented with 20% fetal calf serum (FCS-Cultilab® Campinas, Brazil) and 140 μg·mL^-1 gentamicin (Sigma-Aldrich®). Macrophages were obtained from peritoneal wash of BALB/c mice after euthanasia. 10 mL of RPMI 1640 (Sigma-Aldrich®) supplemented with 2% L-glutamine, 2.8% bicarbonate buffer, 100 U·mL^-1 penicillin and […] streptomycin were injected into the peritoneal cavity. After massage area, liquid was aspirated and transferred to tubes on ice. Peritoneal cells were quantified in Neubauer chamber after cellular exclusion with Trypan Blue staining (Sigma-Aldrich®). Peritoneal cells (1 × 10^5 cells/well) were added to 24-well plates containing circular coverslips. Plates were incubated for one hour at 37 °C/5% CO2 to allow cell adhesion and then 1 × 10^6 L. (L.) amazonensis promastigotes were added to each well. Plates were incubated at 35 °C/5% CO2 for four hours and then cells were treated for 24 h with synthetic compounds 4-19 (6.25-50 μg·mL^-1). Amphotericin B (Sigma-Aldrich®) was used as the reference drug (0.25 to 2 μg·mL^-1) and untreated cells were used as negative control. Coverslips were processed as described by Rizk et al.. The overall number of amastigotes was determined by counting 100 cells in six replicates. The half maximal inhibitory concentration (IC50) was calculated using a nonlinear regression curve. Infection index was obtained as described by […] et al..

J774.A1 cells = assay: Cytotoxicity assay (sulforhodamine B); format: cell-based, murine; settings: for SI (selectivity index): IC50 on mammalian cells/IC50 on intracellular amastigotes; for IC50: Mus musculus, J774.A1, murine macrophages, 48 h, sulforhodamine B; for cytotoxicity on mammalian cells: J774.A1 macrophages
Description: Amphotericin B (Sigma-Aldrich®) was used as the reference drug (0.025–25 µg·mL^−1). Cell growth was evaluated according to Skehan et al. using the sulforhodamine B assay. Dimethyl sulfoxide (DMSO, Vetec®, Rio de Janeiro, Brazil) was used as negative control at the concentration used to solubilize the highest concentration of compounds. IC50 was calculated by nonlinear regression curve. Selectivity index was calculated according to Medeiros et al..

[2] = system: L. amazonensis infected macrophages; assay: Nitric oxide production by infected and treated peritoneal cells (Griess); format: cell-based, BALB/c mice
Description: To evaluate the nitric oxide production (NO) by infected and treated peritoneal cells, 50 µL of culture supernatant from the antileishmanial assay were collected and incubated with equal volume of Griess reagent (1% sulfanilamide /0.1% naphthalene diamine in 5% phosphoric acid) for 10 min at room temperature. According to Ding et al., the absorbance was determined at 540 nm and converted to NO2^− (µM) by comparing to a standard curve of known concentrations of sodium nitrite (1–10 µM) in RPMI medium (Sigma-Aldrich®).

[3] = system: L. (L.) amazonensis promastigotes; settings: cited from earlier work
[4] = system: L. donovani promastigote forms; parameters: method as in PMID 18688887; settings: cited from earlier work
[5] = in Mus musculus, infected BALB/c peritoneal macrophages, treated 24 h, read-out: Intracellular Amastigotes IC50
[6] = classified by IC50 according to Upegui et al.
[7] = at the highest concentration(s) tested, compared to control
[8] = 24 h, classified by IC50 according to Upegui et al., read-out: activity class against intracellular amastigotes
[9] = 24 h after treatment, compared to untreated infected cells (control)
[10] = at the lowest concentrations tested, compared to control
[11] = highest reduction reached / at the highest concentration, 24 h after treatment

Row | Structure (SMILES) | IC50 [1, 5] [µM] | SI (selectivity index) (J774.A1 cells) | IC50 (J774.A1 cells) [µM] | activity class against intracellular amastigotes [1, 6] | IC50 [1, 8] [µM] | nitric oxide (NO) production [2, 9] | other results
1 | C[C@@H]1[C@H](O)[C@@H](C)/C=C/C=C/C=C/C=C/C=C/C=C/C=C/[C@H](O[C@@H]2O[C@H](C)[C@@H](O)[C@H](N)[C@@H]2O)C[C@@H]2O[C@](O)(C[C@@H](O)C[C@@H](O)[C@H](O)CC[C@@H](O)C[C@@H](O)CC(=O)O[C@H]1C)C[C@H](O)[C@H]2C(=O)O [Amphotericin B, reference compound] | 0.7 | 3.1 | 2.2 | – | – | – | –
2 | COc1ccc(-c2cn(-c3ccc(OC)cc3)nn2)cc1 [Compound 4] | 13.1 | 66.9 | 877 | active | – | – | nitric oxide (NO) production [2, 7]: increase of NO production
3 | COc1ccc(-c2cn(-c3ccc(OC)c(OC)c3)nn2)cc1OC [Compound 5] | 21.3 | 3.6 | 76.4 | – | 20 to 50 | – | concentration from which infection index was significantly decreased ([1]; 24 h after treatment): 12.5 µg/mL; nitric oxide (NO) production ([2]; at 25 µg·mL−1, compared to control): lower than control
4 | COc1cc(-c2cn(-c3cc(OC)c(OC)c(OC)c3)nn2)cc(OC)c1OC [Compound 6] | 9.4 | >66.2 | > 623 | active | – | increased production of nitric oxide | concentration from which infection index was significantly decreased ([1]; 24 h after treatment): 6.25 µg/mL; reduction of infection index ([1]; at 50 µg·mL−1, 24 h after treatment): 98.6%; activity on promastigote forms [3]: inactive on promastigote forms
5 | c1cc2c(cc1-c1cn(-c3ccc4c(c3)OCO4)nn1)OCO2 [Compound 7] | 20.4 | 4.2 | 86.2 | – | 20 to 50 | – | –
6 | COc1ccc(-c2cn(-c3ccc(OC)c(OC)c3)nn2)cc1 [Compound 8] | 16 | 4.9 | 79.2 | active | – | – | –
7 | COc1ccc(-n2cc(-c3ccc(OC)c(OC)c3)nn2)cc1 [Compound 9] | 18.3 | 1.2 | 22.6 | active | – | – | –
8 | COc1ccc(-c2cn(-c3cc(OC)c(OC)c(OC)c3)nn2)cc1 [Compound 10] | 16.8 | 3.9 | 65.4 | active | – | – | –
9 | COc1ccc(-n2cc(-c3cc(OC)c(OC)c(OC)c3)nn2)cc1 [Compound 11] | 16.5 | 4.1 | 67.5 | active | – | – | nitric oxide (NO) production [2, 7]: higher than control; nitric oxide (NO) production [2, 10]: lower than untreated cells
10 | COc1ccc(-c2cn(-c3ccc4c(c3)OCO4)nn2)cc1 [Compound 12] | 14.8 | 6.5 | 96.5 | active | – | increase in NO production | nitric oxide (NO) production [2, 7]: increase of NO production
11 | COc1ccc(-n2cc(-c3ccc4c(c3)OCO4)nn2)cc1 [Compound 13] | 50.7 | 2.6 | 135 | did not show potential activity | – | increase in NO production | –
12 | COc1ccc(-c2cn(-c3cc(OC)c(OC)c(OC)c3)nn2)cc1OC [Compound 14] | 5.6 | 14.1 | 79.1 | active | – | induced nitric oxide production | effect on infection index ([1]; 24 h after treatment): reduced the infection index at all concentrations tested; reduction of infection index [1, 11]: 86.4%; nitric oxide (NO) production [2, 10]: significantly induced NO production; cytotoxicity on mammalian cells (J774.A1 cells): low cytotoxicity on mammalian cells
13 | COc1ccc(-n2cc(-c3cc(OC)c(OC)c(OC)c3)nn2)cc1OC [Compound 15] | 29.2 | 2.6 | 76.9 | – | 20 to 50 | – | –
14 | COc1ccc(-c2cn(-c3ccc4c(c3)OCO4)nn2)cc1OC [Compound 16] | 32.7 | >23.5 | > 768 | – | 20 to 50 | significantly induce NO production | –
15 | COc1ccc(-n2cc(-c3ccc4c(c3)OCO4)nn2)cc1OC [Compound 17] | 29.9 | 0.3 | 9.2 | – | 20 to 50 | – | cytotoxicity on mammalian cells (J774.A1 cells): toxic for the macrophages
16 | COc1cc(-c2cn(-c3ccc4c(c3)OCO4)nn2)cc(OC)c1OC [Compound 18] | 29.8 | 2.2 | 66.9 | – | 20 to 50 | did not induce a significant production of NO | reduction of infection index [1, 11]: 92.1%
17 | COc1cc(-n2cc(-c3ccc4c(c3)OCO4)nn2)cc(OC)c1OC [Compound 19] | 4.4 | 10.6 | 46.9 | active | – | induced nitric oxide production | effect on infection index ([1]; 24 h after treatment): significantly reduced the infection index; nitric oxide (NO) production [2, 7]: twice as high than control; IC50 ([3]; read-out: IC50 against L. (L.) amazonensis promastigote forms): 7.2 µM; cytotoxicity on mammalian cells (J774.A1 cells): low cytotoxicity on mammalian cells
18 | COc1cccc2c1C(=O)c1c(O)c3c(c(O)c1C2=O)C[C@@](O)(C(=O)CO)C[C@@H]3O[C@H]1C[C@H](N)[C@H](O)[C@H](C)O1 [Doxorubicin, reference compound] | – | – | 0.5 | – | – | – | –
19 | COc1cc([C@@H]2O[C@@H](c3cc(OC)c(OC)c(OC)c3)[C@H](C)[C@H]2C)cc(OC)c1OC [grandisin] | – | – | – | – | – | – | IC50 on L. (L.) amazonensis promastigotes [3]: 42.4 µg/mL (≈ 98 µM); IC50 ([3]; read-out: IC50 on L. (L.) amazonensis promastigotes): 98 µM
20 | COc1ccc([C@H]2O[C@@H](c3ccc(OC)c(OC)c3)[C@H](C)[C@H]2C)cc1OC [veraguensin] | – | – | – | – | – | – | IC50 [4]: 48.3 µM; activity on L. donovani promastigote forms [4]: 18 µg/mL
